Article PMC9415638, “Discovery of novel thiazolyl-pyrazolines as dual EGFR and VEGFR-2 inhibitors endowed with in vitro antitumor activity towards non-small lung cancer” (Journal of Enzyme Inhibition and Medicinal Chemistry, 2022)

Columns and labels:
[1] = molecular target: T1, recombinant human VEGFR-2/KDR (Homo sapiens, UniProt P35968); assay: VEGFR-2 kinase assay (VEGFR-2/KDR ELISA kit); type: biochemical; details: read-out: IC50 (nM) ± SEM VEGFR-2
T1 construct: purchased
Protocol: (§1) The EGFR kinase assay was carried out in 96-well plates coated with PGT (poly l-glutamic acid l-tyrosine, 4:1, Sigma Aldrich, St. Louis, MO) as previously described. IC50 values were calculated using GraphPad Prism 5. Each experiment was carried out at least three times. The VEGFR-2 kinase assay was carried out in 96-well streptavidin coated plate using recombinant human VEGFR-2/KDR ELISA kit according to manufacturer’s instructions.

[2] = system: WI-38 human lung fibroblast cells; assay: MTT cytotoxicity assay on normal cells; type: cell-based; details: Homo sapiens, WI-38; normal lung fibroblasts, MTT, 24 h, n = 3; read-out: IC50 (µM) ± SEM WI-38
Protocol: All chemicals used in this study were analytical or cell-culture grade.
Cytotoxicity was measured using the MTT assay. […] The medium was aspirated and 150 μL DMSO was added to solubilise MTT formazan crystals. The plates were then shaken, and the optical density was determined at 570 nm using an ELISA plate reader (Model 550, Bio-Rad, Hercules, CA). At least three independent experiments were performed.

A549 lung cancer cells = assay: Anti-proliferative MTT assay; details: Homo sapiens, A549, 24 h; for inhibition at 10 µM: read-out: % Growth inhibition ± SEM A549; for IC50: read-out: IC50 (µM) ± SEM A549
HepG2 liver cancer cells = assay: Anti-proliferative MTT assay; type: cell-based; details: Homo sapiens, 24 h, read-out: % Growth inhibition ± SEM HepG2
Protocol: (§2) To evaluate the anti-proliferative activity of the synthesised thiazolyl-pyrazoline derivatives (7a–7d, 10a–10d, and 13a–13f), a preliminary in vitro one dose (10 µM) anticancer assay was performed. Nine cell lines derived from five tumour subpanels were examined; leukaemia (K562 and KG-1a), breast (MCF-7, BT-549 and HCC70), lung (A549 and H441), colon (HCT116) and liver (HepG2) cancer cell lines. The compounds were added at a single concentration (10 µM) and the cultures were incubated for 24 h, then the per cent growth inhibition (%GI) was calculated.
(§3) Human leukaemia (K562 and KG-1a), breast (MCF-7, BT-549 and HCC70), lung (A549, H441, NCI-H1650 and NCI-H1975), colon (HCT116), liver (HepG2) cancer cell lines and WI-38 human lung fibroblast cell line were obtained from the American Type Culture Collection (ATCC; Manassas, VA) and were cultured in their suitable media containing 10% foetal bovine serum (FBS; Sigma-Aldrich) in a humidified atmosphere with 5% CO2 at 37 °C. Gefitinib and vandetanib were purchased from Sigma-Aldrich. All chemicals used in this study were analytical or cell-culture grade.
(§4) Cytotoxicity was measured using the MTT assay. Human leukaemia (K562 and KG-1a), breast (MCF-7, BT-549 and HCC70), lung (A549, H441, NCI-H1650 and NCI-H1975), colon (HCT116), liver (HepG2) cancer cell lines and WI-38 human lung fibroblast cell line were plated at a density of 1 × 10^4 cells per well in 96-well plates overnight and then treated with the compounds. After 24 h treatment, 20 μL of MTT solution (2 mg/mL in phosphate-buffered saline [PBS]) was added to each well and the cells were cultured for another 4 h at 37 °C. The medium was aspirated and 150 μL DMSO was added to solubilise MTT formazan crystals. The plates were then shaken, and the optical density was determined at 570 nm using an ELISA plate reader (Model 550, Bio-Rad, Hercules, CA). At least three independent experiments were performed. The IC50 values were calculated using GraphPad Prism 5 (Version 5.01, GraphPad Software, San Diego, CA).

KG-1a leukaemia cells = assay: Anti-proliferative MTT assay; type: cell-based; details: Homo sapiens, 24 h, read-out: % Growth inhibition ± SEM KG-1a
Protocol: as §2, §3, §4

[3] = system: HCT116 colon cancer cells; assay: Anti-proliferative MTT assay; type: cell-based; details: Homo sapiens, HCT-116, 24 h, read-out: % Growth inhibition ± SEM HCT116
Protocol: as §2, §3, §4

[4] = system: MCF-7 breast cancer cells; assay: Anti-proliferative MTT assay; type: cell-based; details: Homo sapiens, MCF7, 24 h, read-out: % Growth inhibition ± SEM MCF-7
Protocol: as §2, §3, §4

K562 leukaemia cells = assay: Anti-proliferative MTT assay; type: cell-based; details: Homo sapiens, 24 h, read-out: % Growth inhibition ± SEM K562
Protocol: as §2, §3, §4

[5] = system: HCC70 breast cancer cells; assay: Anti-proliferative MTT assay; type: cell-based; details: Homo sapiens, 24 h, read-out: % Growth inhibition ± SEM HCC70
Protocol: as §2, §3, §4

[6] = system: BT-549 breast cancer cells; assay: Anti-proliferative MTT assay; type: cell-based; details: Homo sapiens, 24 h, read-out: % Growth inhibition ± SEM BT-549
Protocol: as §2, §3, §4

H441 lung cancer cells = assay: Anti-proliferative MTT assay; details: Homo sapiens, NCI-H441, 24 h; for inhibition at 10 µM: read-out: % Growth inhibition ± SEM H441; for IC50: read-out: IC50 (µM) ± SEM H441, MTT, 24 h, n = 3
EGFR = EGFR (Homo sapiens, UniProt P00533); assay: EGFR kinase assay (PGT-coated 96-well plates); type: biochemical; details: read-out: IC50 (nM) ± SEM EGFR
Protocol: as §1

VEGFR-2 = system: VEGFR-2; set-up: method as in PMID 30641320; details: Figure 2; cited from earlier work
A549 cells = assay: Cell cycle analysis by flow cytometry (7AAD); type: cell-based, human; details: A549, 20 µM, 24 h
Protocol: Figure 6. […] (A) Representative cell cycle distribution data are shown by flow cytometric analysis upon incubation with 0 (control), 2.5 or 5 μM of 10b or 10d or with 0 (control), 5 or 20 μM of gefitinib for 24 h. (B) Quantification of cell cycle distribution upon 24 h incubation with 10b or 10d.
DNA content was measured using 7-aminoactinmycin D (7AAD) (Biotium, Inc., Hayward, CA) staining and is commonly used for cell cycle phase analysis as previously described. Apoptosis was evaluated using the annexin V/propidium iodide (PI) staining kit (BioLegend, San Diego, CA) according to the manufacturer’s instructions and as previously described.

T1 sequence (P35968 20-1356): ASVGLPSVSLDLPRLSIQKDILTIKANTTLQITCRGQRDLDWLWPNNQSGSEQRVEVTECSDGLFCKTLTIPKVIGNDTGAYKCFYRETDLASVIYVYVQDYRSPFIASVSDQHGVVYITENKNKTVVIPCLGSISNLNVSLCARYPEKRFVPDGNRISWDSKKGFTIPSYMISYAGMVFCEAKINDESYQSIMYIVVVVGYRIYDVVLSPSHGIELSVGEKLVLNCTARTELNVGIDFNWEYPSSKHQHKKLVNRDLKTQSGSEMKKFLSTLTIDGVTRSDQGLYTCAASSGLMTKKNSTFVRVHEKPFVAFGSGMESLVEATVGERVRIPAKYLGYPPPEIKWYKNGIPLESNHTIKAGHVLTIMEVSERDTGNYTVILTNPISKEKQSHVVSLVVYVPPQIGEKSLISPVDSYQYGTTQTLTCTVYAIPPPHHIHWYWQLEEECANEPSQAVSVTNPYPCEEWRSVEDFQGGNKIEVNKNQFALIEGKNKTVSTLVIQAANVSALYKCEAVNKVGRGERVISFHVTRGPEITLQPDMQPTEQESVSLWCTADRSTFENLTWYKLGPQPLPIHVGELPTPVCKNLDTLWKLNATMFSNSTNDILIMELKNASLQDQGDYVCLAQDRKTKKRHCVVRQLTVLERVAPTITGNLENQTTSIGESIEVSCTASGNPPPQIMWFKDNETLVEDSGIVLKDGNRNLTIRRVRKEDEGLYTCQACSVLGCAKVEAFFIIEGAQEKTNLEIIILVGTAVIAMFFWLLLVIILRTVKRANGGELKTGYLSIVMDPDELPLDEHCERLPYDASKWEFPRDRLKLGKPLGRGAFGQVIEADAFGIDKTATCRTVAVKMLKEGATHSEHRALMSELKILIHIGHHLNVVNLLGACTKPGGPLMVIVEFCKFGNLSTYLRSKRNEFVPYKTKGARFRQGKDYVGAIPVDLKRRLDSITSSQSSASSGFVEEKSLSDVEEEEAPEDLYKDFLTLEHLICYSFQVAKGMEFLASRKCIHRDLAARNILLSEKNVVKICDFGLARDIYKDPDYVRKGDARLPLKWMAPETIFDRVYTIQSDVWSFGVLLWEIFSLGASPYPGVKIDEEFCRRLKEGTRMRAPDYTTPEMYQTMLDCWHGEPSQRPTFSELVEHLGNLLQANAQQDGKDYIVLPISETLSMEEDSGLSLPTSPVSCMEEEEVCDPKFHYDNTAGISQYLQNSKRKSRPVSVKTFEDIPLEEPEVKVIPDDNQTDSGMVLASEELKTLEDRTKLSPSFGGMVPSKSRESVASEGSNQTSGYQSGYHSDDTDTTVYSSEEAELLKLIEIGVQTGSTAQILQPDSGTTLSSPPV
Chain of EGFR (P00533 25-1210): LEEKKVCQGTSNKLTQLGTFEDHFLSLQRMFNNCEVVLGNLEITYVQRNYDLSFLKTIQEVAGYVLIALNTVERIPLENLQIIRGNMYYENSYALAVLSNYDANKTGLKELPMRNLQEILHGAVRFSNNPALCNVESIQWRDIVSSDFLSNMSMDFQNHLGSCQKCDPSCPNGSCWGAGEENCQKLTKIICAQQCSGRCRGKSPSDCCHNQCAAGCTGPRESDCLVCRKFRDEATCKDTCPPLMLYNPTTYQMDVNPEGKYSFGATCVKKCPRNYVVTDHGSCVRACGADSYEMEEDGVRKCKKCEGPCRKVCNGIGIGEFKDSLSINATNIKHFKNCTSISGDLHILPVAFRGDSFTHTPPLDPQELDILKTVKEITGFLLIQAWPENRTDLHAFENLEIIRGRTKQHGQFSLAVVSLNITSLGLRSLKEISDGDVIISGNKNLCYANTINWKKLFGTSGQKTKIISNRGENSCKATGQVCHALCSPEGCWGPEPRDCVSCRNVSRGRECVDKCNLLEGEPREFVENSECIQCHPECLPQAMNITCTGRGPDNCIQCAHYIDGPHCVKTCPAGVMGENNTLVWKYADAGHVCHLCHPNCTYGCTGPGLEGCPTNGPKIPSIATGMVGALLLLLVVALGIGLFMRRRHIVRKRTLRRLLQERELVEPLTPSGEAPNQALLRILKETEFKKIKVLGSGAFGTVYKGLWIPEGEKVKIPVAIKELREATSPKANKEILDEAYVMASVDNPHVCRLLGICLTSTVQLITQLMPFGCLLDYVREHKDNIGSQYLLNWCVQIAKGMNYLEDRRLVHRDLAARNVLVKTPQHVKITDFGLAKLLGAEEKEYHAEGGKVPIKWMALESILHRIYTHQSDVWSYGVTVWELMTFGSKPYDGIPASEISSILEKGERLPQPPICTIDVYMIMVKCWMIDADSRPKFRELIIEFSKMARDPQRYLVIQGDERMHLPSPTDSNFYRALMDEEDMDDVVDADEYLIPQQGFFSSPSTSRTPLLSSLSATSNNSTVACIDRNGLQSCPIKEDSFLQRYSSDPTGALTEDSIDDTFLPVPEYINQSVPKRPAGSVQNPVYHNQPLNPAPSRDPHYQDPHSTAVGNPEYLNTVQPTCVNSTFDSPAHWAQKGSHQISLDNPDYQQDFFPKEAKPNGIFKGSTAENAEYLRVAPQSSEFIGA

Row | SMILES | IC50 [1] | IC50 (A549 lung cancer cells) | IC50 (H441 lung cancer cells) | melting point | IC50 (EGFR) | IC50 [2] | inhibition at 10 µM (A549 lung cancer cells) | inhibition at 10 µM (HepG2 liver cancer cells) | inhibition at 10 µM (KG-1a leukaemia cells) | inhibition at 10 µM [3] | inhibition at 10 µM [4] | inhibition at 10 µM (K562 leukaemia cells) | inhibition at 10 µM [5] | inhibition at 10 µM [6] | inhibition at 10 µM (H441 lung cancer cells) | IC50 (VEGFR-2) | cell cycle arrest phase (A549 cells)
1 | COc1ccc(C2CC(c3ccc(Cl)cc3Cl)=NN2c2nc(C)c(N=Nc3ccc(C)cc3)s2)cc1OC (centres unmarked) [Compound 13e, 2-(3-(2,4-Dichlorophenyl)-5-(3,4-dimethoxyphenyl)-4,5-dihydro-1H-pyrazol-1-yl)-4-methyl-5-(p-tolyldiazenyl)thiazole] | 216 ± 4.3 nM | 19.1 ± 1.3 µM | 15.2 ± 3.6 µM | 176 to 177 °C | 67.7 ± 2 nM | 87 ± 4.2 µM | 30.3 ± 2.4% | 0.3% | 15.2 ± 1.8% | 9.9 ± 0.8% | 1.8 ± 0.6% | 24 ± 2% | 16.1 ± 0.9% | 12.5 ± 1.5% | 46.9 ± 3.9% |  | 
2 | CN(C)c1ccc(C2CC(c3c(O)c4ccccc4oc3=O)=NN2c2nc(-c3ccccc3)c(/N=N/c3ccc(Cl)cc3)s2)cc1 (centres unmarked) [Compound IV] |  |  |  |  |  |  |  |  |  |  |  |  |  |  |  | 0.034 µM | 
3 | COc1cc2ncnc(Nc3ccc(F)c(Cl)c3)c2cc1OCCCN1CCOCC1 [Gefitinib, reference compound] |  |  |  |  |  |  |  |  |  |  |  |  |  |  |  |  | significantly arrested the cell cycle at G1 phase

Further lines, with some results ahead:

Row | IC50 [1] | IC50 (A549 lung cancer cells) | IC50 (H441 lung cancer cells) | melting point | IC50 (EGFR) | SMILES | IC50 [2] | inhibition at 10 µM (A549 lung cancer cells) | inhibition at 10 µM (HepG2 liver cancer cells) | inhibition at 10 µM (KG-1a leukaemia cells) | inhibition at 10 µM [3] | inhibition at 10 µM [4] | inhibition at 10 µM (K562 leukaemia cells) | inhibition at 10 µM [5] | inhibition at 10 µM [6] | inhibition at 10 µM (H441 lung cancer cells) | IC50 (VEGFR-2) | cell cycle arrest phase (A549 cells)
4 | 173 ± 2.6 nM | 46.3 ± 2.5 µM | 33.5 ± 3.9 µM | 170 to 171 °C | 134 ± 1.5 nM | COc1ccc(C2CC(c3ccc(Cl)cc3Cl)=NN2c2nc(C)c(N=Nc3ccc(Cl)cc3)s2)cc1 (centres unmarked) [Compound 13c, 5-((4-Chlorophenyl)diazenyl)-2-(3-(2,4-dichlorophenyl)-5-(4-methoxyphenyl)-4,5-dihydro-1H-pyrazol-1-yl)-4-methylthiazole] | 91.4 ± 8.9 µM | 14.8 ± 1% | 14.2 ± 1% | 12.4 ± 1.6% | 8.7 ± 0.6% | 10.4 ± 2.9% | 5.2 ± 0.9% | 1.1 ± 0.1% | 8.7 ± 1.9% | 19.9 ± 1.7% |  | 
5 | 336 ± 6.3 nM | 57.1 ± 4.1 µM | 21.7 ± 1.3 µM | 187 to 188 °C | 93.6 ± 3 nM | COc1ccc(C2CC(c3ccc(Cl)cc3Cl)=NN2c2nc(C)c(N=Nc3ccccc3)s2)cc1OC (centres unmarked) [Compound 13d, 2-(3-(2,4-Dichlorophenyl)-5-(3,4-dimethoxyphenyl)-4,5-dihydro-1H-pyrazol-1-yl)-4-methyl-5-(phenyldiazenyl)thiazole] | 64.2 ± 2.8 µM | 12.6 ± 2.7% | 18.6 ± 2.5% | 24.1 ± 2.7% | 10.1 ± 3.5% | 11.9 ± 1.8% | 18.2 ± 1.8% | 22.3 ± 1.3% | 14.2 ± 2.2% | 38.9 ± 2.4% |  | 
6 | 113 ± 1.8 nM | 13.7 ± 2.2 µM | 24.8 ± 1.4 µM | 190 to 191 °C | 107 ± 1.2 nM | COc1ccc(C2CC(c3ccc(Cl)cc3Cl)=NN2c2nc(C)c(N=Nc3ccc(Cl)cc3)s2)cc1OC (centres unmarked) [Compound 13f, 5-((4-Chlorophenyl)diazenyl)-2-(3-(2,4-dichlorophenyl)-5-(3,4-dimethoxyphenyl)-4,5-dihydro-1H-pyrazol-1-yl)-4-methylthiazole] | > 100 µM | 47.5 ± 3.1% | 0.9 ± 0.3% | 20 ± 2.8% | 0.2% | 0.8 ± 0.2% | 31.5 ± 1% | 6.3 ± 1% | 24.6 ± 1.3% | 17.3 ± 0.6% |  | 
